Data: US10670605B2, “Cysteine reactive probes and uses thereof” (The Scripps Research Institute, priority 2015, dated 2020)

How the values were obtained:
Test in all cases: Competitive isoTOP-ABPP in situ (fragment-treated cells)
Type in all cases: cell-based
[1] = biological target: T1, cysteines in MDA-MB-231 and Ramos cells (Homo sapiens, UniProt Q96T76)
T1 sequence (Q96T76 1-1030): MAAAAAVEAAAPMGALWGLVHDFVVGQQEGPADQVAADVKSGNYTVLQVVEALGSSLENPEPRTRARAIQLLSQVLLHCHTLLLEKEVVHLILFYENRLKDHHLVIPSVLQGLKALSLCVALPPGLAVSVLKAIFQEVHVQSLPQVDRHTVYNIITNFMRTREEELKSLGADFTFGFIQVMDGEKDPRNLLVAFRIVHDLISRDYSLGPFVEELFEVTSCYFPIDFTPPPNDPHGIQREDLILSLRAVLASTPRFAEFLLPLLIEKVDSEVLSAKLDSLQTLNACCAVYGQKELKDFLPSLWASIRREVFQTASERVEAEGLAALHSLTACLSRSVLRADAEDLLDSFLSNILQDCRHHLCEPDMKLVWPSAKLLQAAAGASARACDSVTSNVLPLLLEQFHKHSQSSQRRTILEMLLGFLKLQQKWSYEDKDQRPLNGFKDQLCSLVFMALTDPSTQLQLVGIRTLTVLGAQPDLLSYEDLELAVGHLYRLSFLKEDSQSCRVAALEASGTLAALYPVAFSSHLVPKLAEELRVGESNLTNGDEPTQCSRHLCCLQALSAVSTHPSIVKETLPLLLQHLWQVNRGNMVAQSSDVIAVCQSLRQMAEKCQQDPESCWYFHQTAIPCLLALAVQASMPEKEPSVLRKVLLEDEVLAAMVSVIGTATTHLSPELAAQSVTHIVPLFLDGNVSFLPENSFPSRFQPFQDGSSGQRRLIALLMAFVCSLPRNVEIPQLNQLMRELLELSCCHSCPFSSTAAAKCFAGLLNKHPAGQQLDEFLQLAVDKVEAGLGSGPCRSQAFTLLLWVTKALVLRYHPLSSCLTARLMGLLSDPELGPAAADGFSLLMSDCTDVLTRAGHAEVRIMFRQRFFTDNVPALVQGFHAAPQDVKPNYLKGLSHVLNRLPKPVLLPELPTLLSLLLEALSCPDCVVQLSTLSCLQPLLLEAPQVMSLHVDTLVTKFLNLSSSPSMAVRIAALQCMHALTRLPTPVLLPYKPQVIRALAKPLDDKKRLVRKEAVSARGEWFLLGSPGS
Description: (§1) Fragments 4 and 11 were screened at 100 μM in situ. […] Site-specific engagement of electrophilic fragments was assessed by blockade of IA-alkyne probe labeling. […] Ratios for unique peptide entries were calculated for each experiment; overlapping peptides with the same modified cysteine (e.g. different charge states, MudPIT chromatographic steps or tryptic termini) were grouped together and the median ratio was reported as the final ratio (R). The peptide ratios reported by CIMAGE were further filtered to ensure the removal or correction of low quality ratios in each individual dataset. […] R values were calculated and individual datasets were filtered as described above (R value calculation and processing).

[2] = biological target: T2, cysteines in MDA-MB-231 and Ramos cells (Homo sapiens, UniProt P35611)
T2 sequence (P35611 1-737): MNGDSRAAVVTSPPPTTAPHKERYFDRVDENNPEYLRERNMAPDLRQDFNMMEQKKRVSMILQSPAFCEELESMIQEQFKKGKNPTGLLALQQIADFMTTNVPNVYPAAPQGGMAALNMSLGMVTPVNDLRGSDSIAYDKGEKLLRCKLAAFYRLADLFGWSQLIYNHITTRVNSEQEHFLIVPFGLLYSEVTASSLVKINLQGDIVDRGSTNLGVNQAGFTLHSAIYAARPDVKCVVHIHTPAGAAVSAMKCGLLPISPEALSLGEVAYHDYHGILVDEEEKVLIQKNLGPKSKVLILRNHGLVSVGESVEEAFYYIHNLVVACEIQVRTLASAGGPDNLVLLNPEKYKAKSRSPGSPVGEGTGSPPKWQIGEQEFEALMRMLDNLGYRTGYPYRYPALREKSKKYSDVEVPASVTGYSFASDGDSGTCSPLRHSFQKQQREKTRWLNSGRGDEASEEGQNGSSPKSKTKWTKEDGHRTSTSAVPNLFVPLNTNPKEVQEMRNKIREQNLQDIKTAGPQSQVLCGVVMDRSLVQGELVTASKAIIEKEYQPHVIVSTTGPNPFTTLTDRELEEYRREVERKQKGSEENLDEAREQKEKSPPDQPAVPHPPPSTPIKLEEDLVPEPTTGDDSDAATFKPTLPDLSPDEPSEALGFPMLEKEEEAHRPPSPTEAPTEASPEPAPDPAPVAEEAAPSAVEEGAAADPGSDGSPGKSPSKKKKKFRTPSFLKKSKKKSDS
Description: as §1

[3] = biological target: T3, cysteines in MDA-MB-231 and Ramos cells (Homo sapiens, UniProt P46734)
T3 sequence (P46734 1-347): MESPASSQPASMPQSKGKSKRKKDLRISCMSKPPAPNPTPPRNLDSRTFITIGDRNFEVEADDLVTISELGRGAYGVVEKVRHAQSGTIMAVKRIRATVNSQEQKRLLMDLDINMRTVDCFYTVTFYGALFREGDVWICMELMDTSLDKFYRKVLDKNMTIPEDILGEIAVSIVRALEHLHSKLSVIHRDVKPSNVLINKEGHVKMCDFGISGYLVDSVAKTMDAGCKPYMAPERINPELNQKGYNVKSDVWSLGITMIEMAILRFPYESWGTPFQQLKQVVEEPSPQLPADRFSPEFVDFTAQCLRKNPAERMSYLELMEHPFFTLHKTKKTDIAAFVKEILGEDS
Description: as §1

[4] = biological target: T4, cysteines in MDA-MB-231 and Ramos cells (Homo sapiens, UniProt P50570)
T4 sequence (P50570 1-870): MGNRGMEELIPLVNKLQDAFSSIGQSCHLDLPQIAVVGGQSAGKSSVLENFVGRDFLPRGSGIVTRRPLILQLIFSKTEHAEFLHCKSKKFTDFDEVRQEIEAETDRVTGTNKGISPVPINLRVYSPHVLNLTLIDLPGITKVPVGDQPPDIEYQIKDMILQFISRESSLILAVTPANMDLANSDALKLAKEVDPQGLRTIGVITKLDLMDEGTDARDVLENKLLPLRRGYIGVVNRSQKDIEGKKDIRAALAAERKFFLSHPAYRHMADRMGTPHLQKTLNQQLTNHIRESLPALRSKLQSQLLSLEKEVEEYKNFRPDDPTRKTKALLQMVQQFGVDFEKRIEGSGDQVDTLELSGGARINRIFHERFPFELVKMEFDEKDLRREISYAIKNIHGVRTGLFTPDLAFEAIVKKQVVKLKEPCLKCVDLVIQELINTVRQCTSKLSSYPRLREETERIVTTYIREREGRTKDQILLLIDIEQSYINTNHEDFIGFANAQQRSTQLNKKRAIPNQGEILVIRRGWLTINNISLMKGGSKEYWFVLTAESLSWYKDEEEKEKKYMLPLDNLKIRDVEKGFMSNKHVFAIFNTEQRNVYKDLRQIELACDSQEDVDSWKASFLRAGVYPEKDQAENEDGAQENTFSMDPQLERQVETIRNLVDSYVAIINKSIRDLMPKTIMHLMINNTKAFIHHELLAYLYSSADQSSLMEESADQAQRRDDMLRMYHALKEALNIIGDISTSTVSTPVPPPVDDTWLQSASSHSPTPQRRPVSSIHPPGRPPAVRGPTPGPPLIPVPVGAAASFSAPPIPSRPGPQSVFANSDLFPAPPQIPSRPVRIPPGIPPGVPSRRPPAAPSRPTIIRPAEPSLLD
Description: as §1

## COc1ccccc1OCCNC(=O)CCl [compound 28]
[1]; 200 μM, insitu, 231
  isoTOP-ABPP ratio Q96T76_C848: 0.8
[2]; 200 μM, insitu, 231
  isoTOP-ABPP ratio P35611_C68: 1.7

## Cc1ccc(C=C(C#N)C(=O)NCCN2CCOCC2)cc1 [compound 41]
[3]; 200 μM, insitu, 231
  isoTOP-ABPP ratio P46734_C207: 0.7
[1]; 200 μM, insitu, 231
  isoTOP-ABPP ratio Q96T76_C819: 0.6
  isoTOP-ABPP ratio Q96T76_C848: 0.7
[4]; 200 μM, insitu, 231
  isoTOP-ABPP ratio P50570_C27: 0.5
[2]; 200 μM, insitu, 231
  isoTOP-ABPP ratio P35611_C68: 0.9

## O=C(CCl)NC(=O)NC12CC3CC(CC(C3)C1)C2 [compound 12]
[3]; 200 μM, insitu, 231
  isoTOP-ABPP ratio P46734_C207: 0.7
[1]; 200 μM, insitu, 231
  isoTOP-ABPP ratio Q96T76_C848: 20.0
[4]; 200 μM, insitu, 231
  isoTOP-ABPP ratio P50570_C27: 0.7
[2]; 200 μM, insitu, 231
  isoTOP-ABPP ratio P35611_C68: 3.6

## O=C(CCl)NCCc1c[nH]c2ccccc12 [compound 13]
[3]; 200 μM, insitu, 231
  isoTOP-ABPP ratio P46734_C207: 0.8
[1]; 200 μM, insitu, 231
  isoTOP-ABPP ratio Q96T76_C848: 0.6
[1]; 200 μM, insitu, ramos
  isoTOP-ABPP ratio Q96T76_C848: 1.5
[4]; 200 μM, insitu, ramos
  isoTOP-ABPP ratio P50570_C27: 1.0
[2]; 200 μM, insitu, 231
  isoTOP-ABPP ratio P35611_C68: 1.1
[2]; 200 μM, insitu, ramos
  isoTOP-ABPP ratio P35611_C68: 1.0

## O=C(CCl)N1CCC(Cc2ccccc2)CC1 [compound 9]
[3]; 200 μM, insitu, 231
  isoTOP-ABPP reactivity P46734_C207 MAP2K3: 3.3
[1]; 200 μM, insitu, 231
  isoTOP-ABPP reactivity Q96T76_C848 MMS19: 20.0
[2]; 200 μM, insitu, 231
  isoTOP-ABPP reactivity P35611_C68 ADD1: 4.3

## COc1ccc(C2CC(c3cccs3)=NN2C(=O)CCl)cc1 (stereo not drawn) [compound 4]
[3]; 100 μM in situ 231
  isoTOP-ABPP reactivity P46734_C207 MAP2K3: 0.6
[1]; 100 μM in situ 231
  isoTOP-ABPP reactivity Q96T76_C848 MMS19: 20.0
[4]; 100 μM in situ 231
  isoTOP-ABPP reactivity P50570_C27 DNM2: 2.2
[2]; 100 μM in situ 231
  isoTOP-ABPP reactivity P35611_C68 ADD1: 4.3

## O=C(CCl)NC12CC3CC(CC(C3)C1)C2 [compound 21]
[3]; 200 μM, insitu, 231
  isoTOP-ABPP ratio P46734_C207: 0.9
[1]; 200 μM, insitu, 231
  isoTOP-ABPP ratio Q96T76_C848: 0.7
[4]; 200 μM, insitu, 231
  isoTOP-ABPP ratio P50570_C27: 0.8
[2]; 200 μM, insitu, 231
  isoTOP-ABPP ratio P35611_C68: 0.8

## O=C(CCl)Nc1cccc2ncccc12 [compound 51]
[3]; 200 μM, insitu, 231
  isoTOP-ABPP ratio P46734_C207: 0.7
[4]; 200 μM, insitu, 231
  isoTOP-ABPP ratio P50570_C27: 1.1
[2]; 200 μM, insitu, 231
  isoTOP-ABPP ratio P35611_C68: 1.0

## Cn1cc(S(=O)(=O)N2CCOCC2)cc1C(=O)NC(=O)CCl [compound 11]
[3]; 100 μM in situ 231
  isoTOP-ABPP ratio P46734_C207: 0.6
[1]; 100 μM in situ 231
  isoTOP-ABPP ratio, cysteine Q96T76_C819: 0.8
[4]; 100 μM in situ 231
  isoTOP-ABPP ratio P50570_C27: 0.7
[2]; 100 μM in situ 231
  isoTOP-ABPP ratio P35611_C68: 0.9

## C=CC(=O)Nc1cc(F)c(N2CCN(C(=O)OC(C)(C)C)CC2)c(F)c1 [compound 38]
[3]; 200 μM, insitu, 231
  isoTOP-ABPP ratio P46734_C207: 1.5
[1]; 200 μM, insitu, 231
  isoTOP-ABPP ratio Q96T76_C819: 4.6
[4]; 200 μM, insitu, 231
  isoTOP-ABPP ratio P50570_C27: 0.9
[2]; 200 μM, insitu, 231
  isoTOP-ABPP ratio P35611_C68: 1.4

## CC1CCc2ccccc2N1C(=O)CCl (stereo not drawn) [compound 45]
[3]; 200 μM, insitu, 231
  isoTOP-ABPP ratio P46734_C207: 1.5
[1]; 200 μM, insitu, 231
  isoTOP-ABPP ratio Q96T76_C819: 20.0
  isoTOP-ABPP ratio Q96T76_C848: 20.0
[4]; 200 μM, insitu, 231
  isoTOP-ABPP ratio P50570_C27: 15.4
[2]; 200 μM, insitu, 231
  isoTOP-ABPP ratio P35611_C68: 20.0

## COc1ccc2c(c1)CCCN2C(=O)CCl [compound 2]
[3]; 200 μM, insitu, 231
  isoTOP-ABPP reactivity P46734_C207 MAP2K3: 0.8
[1]; 200 μM, insitu, 231
  isoTOP-ABPP reactivity Q96T76_C848 MMS19: 3.9
[4]; 200 μM, insitu, 231
  isoTOP-ABPP reactivity P50570_C27 DNM2: 4.6
[2]; 200 μM, insitu, 231
  isoTOP-ABPP reactivity P35611_C68 ADD1: 5.8

## COc1cc2c(cc1OC)CN(C(=O)CCl)CC2 [compound 8]
[3]; 200 μM, insitu, 231
  isoTOP-ABPP reactivity P46734_C207 MAP2K3: 0.8
[1]; 200 μM, insitu, 231
  isoTOP-ABPP reactivity Q96T76_C848 MMS19: 1.7
[2]; 200 μM, insitu, 231
  isoTOP-ABPP reactivity P35611_C68 ADD1: 2.4

## CC(C)CCOCCNC(=O)CCl [compound 27]
[3]; 200 μM, insitu, 231
  isoTOP-ABPP ratio P46734_C207: 0.8
[1]; 200 μM, insitu, 231
  isoTOP-ABPP ratio Q96T76_C819: 0.5
  isoTOP-ABPP ratio Q96T76_C848: 0.5
[4]; 200 μM, insitu, 231
  isoTOP-ABPP ratio P50570_C27: 0.5
[2]; 200 μM, insitu, 231
  isoTOP-ABPP ratio P35611_C68: 0.9

## O=C(CCl)N1CCN(S(=O)(=O)c2ccccc2F)CC1 [compound 10]
[3]; 200 μM, insitu, 231
  isoTOP-ABPP ratio P46734_C207: 0.8
[1]; 200 μM, insitu, 231
  isoTOP-ABPP ratio Q96T76_C848: 2.5
[1]; 200 μM, insitu, ramos
  isoTOP-ABPP ratio, cysteine Q96T76_C819: 3.0
[4]; 200 μM, insitu, 231
  isoTOP-ABPP ratio P50570_C27: 3.1
[2]; 200 μM, insitu, 231
  isoTOP-ABPP ratio P35611_C68: 1.9

## O=C(CCl)N1CCN(CC(=O)N2CCOCC2)CC1 [compound 29]
[1]; 200 μM, insitu, ramos
  isoTOP-ABPP ratio Q96T76_C848: 1.0
[4]; 200 μM, insitu, ramos
  isoTOP-ABPP ratio P50570_C27: 1.0

## C=CC(=O)N(Cc1cccnc1)c1cc(C(F)(F)F)cc(C(F)(F)F)c1 [compound 31]
[1]; 200 μM, insitu, 231
  isoTOP-ABPP ratio Q96T76_C819: 20.0
  isoTOP-ABPP ratio Q96T76_C848: 20.0
[1]; 200 μM, insitu, ramos
  isoTOP-ABPP ratio Q96T76_C819: 20.0
